target: T1, human DGAT1 (Homo sapiens, UniProt O75907); assay: DGAT1 FlashPlate inhibition assay with DGAT1 membrane preparations; type: biochemical; details: IC50 values expressed in M; pIC50 = -logIC50; inhibition of DGAT1 activity
T1 construct: FLAG (N); made in house; host or cells: SF9 insect cells (baculovirus, pFastBac); total cell membranes used as the enzyme source
T1 sequence (O75907 1-488): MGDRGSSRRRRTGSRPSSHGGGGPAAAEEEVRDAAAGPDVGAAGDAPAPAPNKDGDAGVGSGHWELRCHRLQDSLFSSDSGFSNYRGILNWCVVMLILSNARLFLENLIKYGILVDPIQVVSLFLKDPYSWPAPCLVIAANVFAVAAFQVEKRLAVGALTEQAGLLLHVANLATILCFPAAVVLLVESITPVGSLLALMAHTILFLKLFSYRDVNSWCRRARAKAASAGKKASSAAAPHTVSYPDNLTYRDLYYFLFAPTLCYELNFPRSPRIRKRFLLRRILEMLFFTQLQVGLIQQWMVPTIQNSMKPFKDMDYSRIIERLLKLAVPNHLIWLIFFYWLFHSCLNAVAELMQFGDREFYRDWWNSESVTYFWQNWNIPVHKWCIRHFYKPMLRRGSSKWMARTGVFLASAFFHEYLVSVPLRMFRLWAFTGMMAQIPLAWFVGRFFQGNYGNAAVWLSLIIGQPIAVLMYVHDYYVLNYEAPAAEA
Description: The inhibiting activity of the present compounds on DGAT1 activity was screened in a single well procedure assay using DGAT1 comprising membrane preparations and DGAT1 substrate comprising micelles and determining formed radio-active triacylglycerol coming in close proximity of a flashplate surface by radioluminescence.
Said assay is described in full detail in WO2006/067071, the content of which is incorporated herein by reference.
By DGAT1 activity is meant the transfer of coenzyme A activated fatty acids to the 3-position of 1,2-diacylglycerols, thus forming a triglyceride molecule, by enzyme DGAT1.
human DGAT1 (NM012079.2) was cloned into the pFastBac vector, containing translation start, a FLAG-tag at the N-terminus as described in literature and a viral Kozak sequence (AAX) preceding the ATG to improve expression in insect cells. Expression was done as described in literature (Cases, S., Smith, S. J., Zheng, Y., Myers H. M., Lear, S. R., Sande, E., Novak, S., Collins, C., Welch, C. B., Lusis, A. J., Erickson, S. K. and Farese, R. V. (1998) Proc. Natl. Acad. Sci. USA 95, 13018-13023.) using SF9 cells.
72 h transfected SF9 cells were collected by centrifugation (13000 rpm-15 min-4° C.) and lysed in 2×500 ml lysis buffer (0.1M Sucrose, 50 mM KCl, 40 mM KH2PO4, 30 mM EDTA pH 7.2. Cells were homogenized by cell disruptor. After centrifugation 1380 rpm-15 min-4° C. (SN discarded), pellet was resuspended in 500 ml lysis buffer and total cell membranes collected by ultracentrifugation at 34000 rpm (100 000 g) for 60 min (4° C.). The collected membranes were resuspended in lysis buffer, divided in aliquots and stored with 10% glycerol at −80° C. until use.
Add 1 ml dioleoyl-sn-glycerol (10 mg/ml) to 10 ml of L-α-phosphatidylcholine (1 mg/ml) and 10 ml of L-α-phosphatidyl-L-serine (1 mg/ml) in a thick glass recipient. Evaporate under nitrogen and put on ice for 15 minutes. Reconstitute in 10 ml Tris/HCl (10 mM, pH 7.4) by sonication on ice. The sonification process consists of sonification cycles of 10 seconds in the sonification bath followed by 10 seconds cool down on ice and repeating this sonification cycle till a homogeneous solution is obtained (takes about 15 minutes). The thus obtained micelles are stored at −20° C. till later use and contain DAG at a final concentration of 1.61 mM.
• 50 mM Tris-HCl (pH 7.4), 150 mM MgCl2, 1 mM EDTA, 0.2% BSA. b) N-ethylmaleimide, 5M • Dissolve 5 g into a final volume of 8 ml DMSO 100% and store at −20° C. in aliquots till later use. c) Substrate mix (for 1 384 well plate=3840 μl) • 612 μl micelles stock (51 μM final) • 16.6 μl oleoylCoA 9.7 mM • 23 μl [^3H]-oleoylCoA (49 Ci/mmol, 500 μCi/ml) • 3188.4 μl Tris pH 7.4, 10 mM d) Enzyme mix (for 1 384 well plate=3520 μl) (5 μg/ml) • Add 11.73 μl of DGAT membrane stock (1500 μg/ml stock) to 3508 μl assay buffer. e) Stop mix (for 1 384 well plate=7.68 ml) (250 mM) • Add 384 μl of N-ethylmaleimide (5M) to 3.456 ml DMSO 100%, and further dilute 3.84 ml of said solution with 3.84 ml DMSO 10%. Method
DGAT activity in membrane preparations was assayed in 50 mM Tris-HCl (pH 7.4), 150 mM MgCl2, 1 mM EDTA and 0.2% BSA, containing 50 μM DAG, […] PC/PS and 8.4 μM [^3H]-oleoylCoA (at a specific activity of 30 nCi/well) in a final volume of 50 μl in 384-well format using the red shifted Basic Image FlashPlate™ (Perkin Elmer Cat. No. SMP400).
In detail, 10 μl enzyme mix and 10 μl substrate mix were added to 30 μl of assay buffer, optionally in the presence of 1 μl DMSO (blank and controls) or 1 μl of the compound to be tested. This reaction mixture was incubated for 120 minutes at 37° C. and the enzymatic reaction stopped by adding 20 μl of the stop mix. The plates were sealed and the vesicles allowed to settle overnight at room temperature. Plates were centrifuged for 5 minutes at 1500 rpm and measured in Leadseeker. […]

Row | IC50 [nM] | SMILES
1 | 7240 | O=C(Nc1ccc(N2CCN(C(=O)Nc3ccc4c(c3)OCCO4)CC2)cc1)c1ccccc1-c1ccc(C(F)(F)F)cc1 [Compound 106]
2 | 19.1 | O=C(Nc1ccc(N2CCN(C(=O)Nc3c(Cl)cccc3Cl)CC2)cc1)c1cccc(N2CCCCS2(=O)=O)c1 [Compound 41]
3 | 4570 | COc1cccc(OC)c1NC(=O)N1CCC(c2ccc(NC(=O)c3ccccc3-c3ccc(C(F)(F)F)cc3)cc2)CC1 [Compound 111]
4 | 8.91 | O=C(Nc1ccc(N2CCN(C(=O)Nc3c(Cl)cccc3Cl)CC2)cc1)c1ccc(-n2cccn2)cc1 [Compound 21]
5 | 58.9 | Cc1ccc(C(=O)Nc2ccc(N3CCN(C(=O)Nc4c(Cl)cccc4Cl)CC3)cc2)c(-c2ccc(C(F)(F)F)cc2)c1 [Compound 66]
6 | 9.55 | O=C(Nc1ccc(N2CCN(C(=O)Nc3c(Cl)cccc3Cl)CC2)cc1)c1ccc(-c2ccccn2)cc1 [Compound 126]
7 | 490 | O=C(Nc1ccc(N2CCN(C(=O)Nc3c(Br)cc(Br)cc3Br)CC2)cc1)c1ccccc1-c1ccc(C(F)(F)F)cc1 [Compound 97]
8 | 6.61 | O=C(Nc1ccc(N2CCN(C(=O)Nc3c(Cl)cccc3Cl)CC2)cc1)c1cccc(N2CCOCC2)c1 [Compound 40]
9 | 9550 | CC(C)c1ccccc1NC(=O)N1CCC(c2ccc(NC(=O)c3ccccc3-c3ccc(C(F)(F)F)cc3)cc2)CC1 [Compound 109]
10 | 631 | Cc1cc(C)c(NC(=O)N2CCC(c3ccc(NC(=O)c4ccccc4-c4ccc(C(F)(F)F)cc4)cc3)CC2)c(Br)c1 [Compound 118]
11 | 2340 | O=C(Nc1ccc(N2CCN(C(=O)Nc3ccccc3[N+](=O)[O-])CC2)cc1)c1ccccc1-c1ccc(C(F)(F)F)cc1 [Compound 92]
12 | 2450 | C=CCNC(=O)N1CCC(c2ccc(NC(=O)c3ccccc3-c3ccc(C(F)(F)F)cc3)cc2)CC1 [Compound 107]
13 | 120 | O=C(Nc1ccc(C2CCN(C(=O)Nc3c(Cl)cccc3Cl)CC2)cc1)c1cccc2c1-c1ccccc1C2=O [Compound 63]
14 | 1550 | CCc1cccc(C)c1NC(=O)N1CCN(c2ccc(NC(=O)c3ccccc3-c3ccc(C(F)(F)F)cc3)cc2)CC1 [Compound 83]
15 | 3.89 | Cc1cc(C)n(-c2ccc(C(=O)Nc3ccc(N4CCN(C(=O)Nc5c(Cl)cccc5Cl)CC4)cc3)cc2)n1 [Compound 27]
16 | 145 | Cc1ccc(C)n1-c1ccc(C(=O)Nc2ccc(N3CCN(C(=O)Nc4c(Cl)cccc4Cl)CC3)cc2)cc1 [Compound 19]
17 | 1380 | O=C(Nc1ccc(N2CCN(C(=O)Nc3c(Cl)cccc3Cl)CC2)cc1)c1ccccc1-n1ccnc1 [Compound 22]
18 | 269 | Cc1cccc(C)c1NC(=O)N1CCN(c2ccc(NC(=O)c3ccccc3-c3ccc(C(F)(F)F)cc3)cc2)CC1 [Compound 82]
19 | 20.4 | O=C(Nc1ccc(N2CCN(C(=O)Nc3c(Cl)cccc3Cl)CC2)cc1)c1ccccc1-c1ccccc1 [Compound 34]
20 | 2950 | O=C(Nc1ccc(N2CCN(C(=O)Nc3ccccc3F)CC2)cc1)c1ccccc1-c1ccc(C(F)(F)F)cc1 [Compound 90]
21 | 2.82 | CCOC(=O)c1cccc(C(=O)Nc2ccc(N3CCN(C(=O)Nc4c(Cl)cccc4Cl)CC3)cc2)c1 [Compound 125]

Row | IC50 [nM] | SMILES
22 | 355 | Cc1ccc(C(=O)Nc2ccc(C3CCN(C(=O)Nc4c(Cl)cccc4Cl)CC3)cc2)c(-c2ccc(C(F)(F)F)cc2)c1 [Compound 58]
23 | 3390 | O=C(O)c1cccc(C(=O)Nc2ccc(N3CCN(C(=O)Cc4c(Cl)cc(CN5CCCC5)cc4Cl)CC3)cc2)c1 [Compound 146]
24 | 776 | O=C(Nc1ccc(N2CCN(C(=O)Nc3c(Cl)cccc3Cl)CC2)cc1)c1ccc(-n2cnnc2)cc1 [Compound 29]
25 | 3470 | Cc1ccccc1NC(=O)N1CCC(c2ccc(NC(=O)c3ccccc3-c3ccc(C(F)(F)F)cc3)cc2)CC1 [Compound 7]
26 | 316 | Cc1cc(C)c(NC(=O)N2CCC(c3ccc(NC(=O)c4ccccc4-c4ccc(C(F)(F)F)cc4)cc3)CC2)c(Cl)c1 [Compound 117]
27 | 204 | Cc1nc(C(=O)Nc2ccc(N3CCN(C(=O)Nc4c(Cl)cccc4Cl)CC3)cc2)c(-c2cccc(C(F)(F)F)c2)s1 [Compound 65]
28 | 7940 | CC(C)(C)NC(=O)N1CCN(c2ccc(NC(=O)c3ccccc3-c3ccc(C(F)(F)F)cc3)cc2)CC1 [Compound 69]
29 | 1820 | O=C(Nc1ccc(N2CCN(C(=O)Nc3c(Cl)cc(Cl)cc3Cl)CC2)cc1)c1ccccc1-c1ccc(C(F)(F)F)cc1 [Compound 99]
30 | 1.74 | Cc1ccccc1-c1cccc(C(=O)Nc2ccc(N3CCN(C(=O)Nc4c(Cl)cccc4Cl)CC3)cc2)c1 [Compound 36]
31 | 8910 | O=C(Nc1ccc(C2CCN(C(=O)Nc3c(Cl)cccc3Cl)CC2)cc1)C1CCCNC1 (centres unmarked) [Compound 49]
32 | 148 | Cc1cccc(Cl)c1NC(=O)N1CCN(c2ccc(NC(=O)c3ccccc3-c3ccc(C(F)(F)F)cc3)cc2)CC1 [Compound 94]
33 | 7590 | CC(C)(C)c1ccccc1NC(=O)N1CCN(c2ccc(NC(=O)c3ccccc3-c3ccc(C(F)(F)F)cc3)cc2)CC1 [Compound 78]
34 | 407 | Cc1cccc([N+](=O)[O-])c1NC(=O)N1CCN(c2ccc(NC(=O)c3ccccc3-c3ccc(C(F)(F)F)cc3)cc2)CC1 [Compound 95]
35 | 30.9 | O=C(Nc1cccc(N2CCCC2)c1)c1ccc(N2CCN(C(=O)Cc3c(Cl)cccc3Cl)CC2)cc1 [Compound 131]
36 | 1170 | O=C(Nc1ccc(N2CCN(C(=O)Nc3c(Cl)cccc3Cl)CC2)cc1)c1ccccc1N1CCS(=O)(=O)CC1 [Compound 42]
37 | 2190 | Cc1ccc([N+](=O)[O-])c(NC(=O)N2CCC(c3ccc(NC(=O)c4ccccc4-c4ccc(C(F)(F)F)cc4)cc3)CC2)c1C [Compound 116]
38 | 4470 | CCc1ccccc1NC(=O)N1CCC(c2ccc(NC(=O)c3ccccc3-c3ccc(C(F)(F)F)cc3)cc2)CC1 [Compound 108]
39 | 3310 | O=C(Nc1ccc(N2CCN(C(=O)Nc3c(Cl)cccc3Cl)CC2)cc1)c1ccccc1-c1nnn[nH]1 [Compound 32]
40 | 5500 | O=C(Nc1ccc(N2CCN(C(=O)NCc3ccccc3)CC2)cc1)c1ccccc1-c1ccc(C(F)(F)F)cc1 [Compound 70]
41 | 5370 | O=C(Nc1ccc(C2CCN(C(=O)Nc3c(Cl)cccc3Cl)CC2)cc1)C1CC(O)CN1 (centres unmarked) [Compound 47]
